# Source: patent US11124500B2, “Disubstituted pyrazole compounds” (Eli Lilly and Company, priority 2019, dated 2021)
# What was measured:
# human KHK-C = human KHK-C (Homo sapiens (Human), UniProt P50053); experiment: KHK enzyme activity assay, human KHK-C (F1P production, RapidFire MS); assay type: biochemical; details: fructose 250 μM, ATP 150 μM; average ± SEM; read-out: hKHK-C IC50
# Experimental: (§1) KHK Enzyme Activity Assay for Human KHK-C and Human KHK-A
# (§2) The intrinsic potency for inhibition of KHK C or A activity may be measured using an enzymatic assay which measures the production of FIP. Compounds are prepared in DMSO and tested in a 10-point concentration curve, to create 3-fold serial dilutions of the compounds in a 96-well plate ranging from 20 μM to 1.02 nM. Enzyme is prepared in assay buffer [50 mM 4-(2-hydroxyethyl)piperazine-1-ethanesulfonic acid (HEPES), 10 mM potassium chloride, 100 mM magnesium chloride, 2 mM tris(2-carboxyethyl)phosphine (TCEP), 0.01% n-octyl glucoside] and incubated with compounds at RT for 15 min. The reaction is carried out in 100 μL volumes containing substrate concentrations of fructose (250 μM for KHK-C assay and 1.25 mM for KHK-A assay) and ATP (150 μM for both isoforms); which are further incubated at RT for 20 min. The reaction is then halted by the addition of stop buffer; consisting of 0.2% formic acid and 1 μg/ml ^13C6-fructose-6-phosphate (^13C6-F6P) internal standard. Plates are stored in −20° C. until RapidFire MS analysis.
# (§3) RapidFire MS Analysis for Quantitation of F1P
# (§4) An Agilent 300 RapidFire automated extraction system (Agilent, Santa Clara, Calif.) with three HPLC quaternary pumps is coupled to an Agilent 6495 triple quadrupole mass spectrometer (Agilent Technologies, Santa Clara, Calif.) equipped with an electrospray ionization (ESI) interface source. The RapidFire Mass Spec system is equipped with a reusable RapidFire C18 (type C) solid-phase extraction (SPE) cartridge (G9205 Å).
# (§5) Solvent A, used for sample loading and washing, is 6 mM octylamine (Acros Organics 129495000) brought to pH 5.0 using acetic acid. Solvent B, used for sample elution, is 20% water in ACN containing 0.1% formic acid. Samples are sequentially analyzed by aspirating 10 μL onto the collection loop under vacuum directly from multiwell plates. The 10 μL of sample is loaded onto the C18 cartridge and washed using solvent A at a flow rate of 1.25 mL/min for 5000 ms. The retained analytes are then eluted to the mass spectrometer using solvent B at a flow rate of 1.25 mL/min for 5000 ms. The system is re-equilibrated using solvent at flow rate of 1.25 mL/min for 2000 ms.
# (§6) The triple quadrupole mass spectrometer is equipped with an ESI source and analytes are monitored using selected reaction monitoring (SRM) in negative mode [M−H]−. F1P is monitored at m/z 259.02/96.9 and ^13C6-fructose-6-phosphate is monitored at m/z 264.99/97. The area ratio values for F1P is calculated using ^13C6-fructose-6-phospate as internal standard.
# human KHK-A = human KHK-A (Homo sapiens (Human), UniProt P50053); experiment: KHK enzyme activity assay, human KHK-A (F1P production, RapidFire MS); assay type: biochemical; details: fructose 1.25 mM, ATP 150 μM; average ± SEM; read-out: hKHK-A IC50
# Experimental: as §1, §2, §3, §4, §5, §6
# Sequence of human KHK-C (P50053 whole entry): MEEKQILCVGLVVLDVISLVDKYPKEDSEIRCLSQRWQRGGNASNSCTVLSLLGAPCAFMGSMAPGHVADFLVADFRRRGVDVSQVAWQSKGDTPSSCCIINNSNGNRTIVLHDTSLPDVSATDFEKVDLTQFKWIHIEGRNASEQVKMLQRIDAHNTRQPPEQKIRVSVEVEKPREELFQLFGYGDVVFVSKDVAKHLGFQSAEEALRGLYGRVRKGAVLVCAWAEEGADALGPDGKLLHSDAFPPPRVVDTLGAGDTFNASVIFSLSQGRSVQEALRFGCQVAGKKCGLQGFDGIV
# Sequence of human KHK-A (P50053 other isoform, or with tags, fused parts or gaps): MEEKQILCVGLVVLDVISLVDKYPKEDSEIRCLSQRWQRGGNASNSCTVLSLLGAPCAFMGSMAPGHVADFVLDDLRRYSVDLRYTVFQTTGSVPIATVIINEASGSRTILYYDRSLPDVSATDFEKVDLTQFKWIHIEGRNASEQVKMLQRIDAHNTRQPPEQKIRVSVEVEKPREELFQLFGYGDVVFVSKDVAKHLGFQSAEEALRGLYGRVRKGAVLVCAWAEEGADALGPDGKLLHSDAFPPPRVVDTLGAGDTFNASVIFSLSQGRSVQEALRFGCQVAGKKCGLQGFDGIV
IC50 (human KHK-C) [nM],IC50 (human KHK-A) [nM],Compound
6.06,9.99,"C[C@H]1CCN1c1nc(-c2cnn(CC(O)CO)c2)cc(C(F)(F)F)c1C#N (single isomer, unassigned; isomer 1) [Example 24a]"
4.89,6.75,"C[C@H]1CCN1c1nc(-c2cnn(CC(O)CO)c2)cc(C(F)(F)F)c1C#N (single isomer, unassigned; isomer 2) [Example 24b]"
41.9 ± 6.77,45.4 ± 29.5,"OC[C@H]1CCN1c1nc(-c2cnn(C3CNC3)c2)cc(C(F)(F)F)n1 [Example 3, [(2R)-1-[4-[1-(Azetidin-3-yl)pyrazol-4-yl]-6-(trifluoromethyl)pyrimidin-2-yl]azetidin-2-yl]methanol]"
14.4 ± 1.12,11.4 ± 4.34,"C[C@H]1[C@H](O)CN1c1nc(-c2cnn(C3CNC3)c2)cc(C(F)(F)F)n1 [Example 4, (2S,3R)-1-[4-[1-(Azetidin-3-yl)pyrazol-4-yl]-6-(trifluoromethyl)pyrimidin-2-yl]-2-methyl-azetidin-3-ol]"
57 ± 32.6,37.7 ± 19.9,"C[C@H]1CCN1c1nc(-c2cnn(CC(=O)NCCO)c2)cc(C(F)(F)F)c1C#N [Example 5, 2-[4-[5-Cyano-6-[(2S)-2-methylazetidin-1-yl]-4-(trifluoromethyl)-2-pyridyl]pyrazol-1-yl]-N-(2-hydroxyethyl)acetamide]"
25.7 ± 5.14,15.4 ± 5.05,"N#Cc1c(C(F)(F)F)cc(-c2cnn(C3CCNCC3)c2)nc1N1CC[C@@H]1CO [Example 6, 2-[(2R)-2-(Hydroxymethyl)azetidin-1-yl]-6-[1-(4-piperidyl)pyrazol-4-yl]-4-(trifluoromethyl)pyridine-3-carbonitrile]"
18.1 ± 4.85,6.02 ± 2.27,"C[C@H]1[C@H](O)CN1c1nc(-c2cnn(C3CCNCC3)c2)cc(C(F)(F)F)c1C#N [Example 7, 2-[(2S,3R)-3-Hydroxy-2-methyl-azetidin-1-yl]-6-[1-(4-piperidyl)pyrazol-4-yl]-4-(trifluoromethyl)pyridine-3-carbonitrile]"
56.1 ± 62.5,25.2 ± 15.7,"C[C@H]1CCN1c1nc(-c2cnn(C3CCN(C)CC3)c2)cc(C(F)(F)F)c1C#N [Example 8, 2-[(2S)-2-Methylazetidin-1-yl]-6-[1-(1-methyl-4-piperidyl)pyrazol-4-yl]-4-(trifluoromethyl)pyridine-3-carbonitrile]"
6.26,3.58,"C[C@H]1CCN1c1nc(-c2cnn(C3CCN(CCO)CC3)c2)cc(C(F)(F)F)c1C#N [Example 9, 6-[1-[1-(2-Hydroxyethyl)-4-piperidyl]pyrazol-4-yl]-2-[(2S)-2-methylazetidin-1-yl]-4-(trifluoromethyl)pyridine-3-carbonitrile]"
418 ± 503,246 ± 248,"C[C@H]1CCN1c1nc(-c2cnn(CCN(C)C)c2)cc(C(F)(F)F)c1C#N [Example 10, 6-[1-[2-(Dimethylamino)ethyl]pyrazol-4-yl]-2-[(2S)-2-methylazetidin-1-yl]-4-(trifluoromethyl)pyridine-3-carbonitrile]"
8.03,5.23,"C[C@H]1CCN1c1nc(-c2cnn(CCO)c2)cc(C(F)(F)F)c1C#N [Example 11, 6-[1-(2-Hydroxyethyl)pyrazol-4-yl]-2-[(2S)-2-methylazetidin-1-yl]-4-(trifluoromethyl)pyridine-3-carbonitrile]"
3.87 ± 0.391,3.65 ± 0.817,"C[C@H]1CCN1c1nc(-c2cnn(C3CCNCC3)c2)cc(C(F)(F)F)c1C#N [Example 12, 2-[(2S)-2-Methylazetidin-1-yl]-6-[1-(4-piperidyl)pyrazol-4-yl]-4-(trifluoromethyl)pyridine-3-carbonitrile]"
15.5 ± 20.4,7.69 ± 7.97,"C[C@H]1CCN1c1nc(-c2cnn(C3CCNCC3)c2)cc(C(F)(F)F)n1 [Example 13, 2-[(2S)-2-Methylazetidin-1-yl]-4-[1-(4-piperidyl)pyrazol-4-yl]-6-(trifluoromethyl)pyrimidine]"
15.9 ± 4.37,19.1 ± 2.98,"C[C@H]1[C@H](O)CN1c1nc(-c2cnn([C@@H]3CCNC3)c2)cc(C(F)(F)F)n1 [Example 14, (2S,3R)-2-Methyl-1-[4-[1-[(3R)-pyrrolidin-3-yl]pyrazol-4-yl]-6-(trifluoromethyl)pyrimidin-2-yl]azetidin-3-ol]"
27.2 ± 8.6,26.7 ± 3.66,"C[C@H]1[C@H](O)CN1c1nc(-c2cnn([C@H]3CCNC3)c2)cc(C(F)(F)F)n1 [Example 15, (2S,3R)-2-Methyl-1-[4-[1-[(3S)-pyrrolidin-3-yl]pyrazol-4-yl]-6-(trifluoromethyl)pyrimidin-2-yl]azetidin-3-ol]"
28 ± 17.3,30 ± 5.09,"OC[C@H]1CCN1c1nc(-c2cnn([C@@H]3CCNC3)c2)cc(C(F)(F)F)n1 [Example 16, [(2R)-1-[4-[1-[(3R)-Pyrrolidin-3-yl]pyrazol-4-yl]-6-(trifluoromethyl)pyrimidin-2-yl]azetidin-2-yl]methanol]"
16.1 ± 7.96,13.2 ± 12.7,"C[C@H]1CCN1c1nc(-c2cnn(C3CNC3)c2)cc(C(F)(F)F)c1C#N [Example 17, 6-[1-(Azetidin-3-yl)pyrazol-4-yl]-2-[(2S)-2-methylazetidin-1-yl]-4-(trifluoromethyl)pyridine-3-carbonitrile]"
59.2 ± 67.8,35.6 ± 32.4,"C[C@H]1CCN1c1nc(-c2cnn(C3CCN(C(=O)CN)CC3)c2)cc(C(F)(F)F)c1C#N [Example 18, 6-[1-[1-(2-Aminoacetyl)-4-piperidyl]pyrazol-4-yl]-2-[(2S)-2-methylazetidin-1-yl]-4-(trifluoromethyl)pyridine-3-carbonitrile]"
54.3,29.2,"CC(=O)N1CCC(n2cc(-c3cc(C(F)(F)F)c(C#N)c(N4CC[C@@H]4C)n3)cn2)CC1 [Example 19, 6-[1-(1-Acetyl-4-piperidyl)pyrazol-4-yl]-2-[(2S)-2-methylazetidin-1-yl]-4-(trifluoromethyl)pyridine-3-carbonitrile]"
150 ± 243,81.8 ± 92.6,"C[C@H]1CCN1c1nc(-c2cnn(CC(=O)N3CCN(C)CC3)c2)cc(C(F)(F)F)c1C#N [Example 20, 2-[(2S)-2-Methylazetidin-1-yl]-6-[1-[2-(4-methylpiperazin-1-yl)-2-oxo-ethyl]pyrazol-4-yl]-4-(trifluoromethyl)pyridine-3-carbonitrile]"
55.2 ± 28.1,39.2 ± 13.6,"C[C@H]1CCN1c1nc(-c2cnn(CC(=O)N(CCO)CCO)c2)cc(C(F)(F)F)c1C#N [Example 21, 2-[4-[5-Cyano-6-[(2S)-2-methylazetidin-1-yl]-4-(trifluoromethyl)-2-pyridyl]pyrazol-1-yl]-N,N-bis(2-hydroxyethyl)acetamide]"
61.3 ± 57.5,33.7 ± 17.8,"C[C@H]1CCN1c1nc(-c2cnn(CC(=O)N3C[C@@H](O)[C@H](O)C3)c2)cc(C(F)(F)F)c1C#N [Example 22, 6-[1-[2-[(3R,4R)-3,4-Dihydroxypyrrolidin-1-yl]-2-oxo-ethyl]pyrazol-4-yl]-2-[(2S)-2-methylazetidin-1-yl]-4-(trifluoromethyl)pyridine-3-carbonitrile]"
41.6 ± 47.1,24.9 ± 15.3,"C[C@H]1CCN1c1nc(-c2cnn(CC(=O)N3C[C@H](O)[C@@H](O)C3)c2)cc(C(F)(F)F)c1C#N [Example 23, 6-[1-[2-[(3S,4S)-3,4-Dihydroxypyrrolidin-1-yl]-2-oxo-ethyl]pyrazol-4-yl]-2-[(2S)-2-methylazetidin-1-yl]-4-(trifluoromethyl)pyridine-3-carbonitrile]"
